Each structure is given as a SMILES string. Counter-ions that a name gives are not always drawn.

This experiment addresses T1, ETB Receptor (Sus scrofa, UniProt P35463).
T1 construct: Porcine cerebellum was homogenized in 25 volumes (w/v) of 10 mM Hepes (pH 7.4); from tissue; host or cells: porcine cerebellum membranes
T1 sequence (P35463 27-443): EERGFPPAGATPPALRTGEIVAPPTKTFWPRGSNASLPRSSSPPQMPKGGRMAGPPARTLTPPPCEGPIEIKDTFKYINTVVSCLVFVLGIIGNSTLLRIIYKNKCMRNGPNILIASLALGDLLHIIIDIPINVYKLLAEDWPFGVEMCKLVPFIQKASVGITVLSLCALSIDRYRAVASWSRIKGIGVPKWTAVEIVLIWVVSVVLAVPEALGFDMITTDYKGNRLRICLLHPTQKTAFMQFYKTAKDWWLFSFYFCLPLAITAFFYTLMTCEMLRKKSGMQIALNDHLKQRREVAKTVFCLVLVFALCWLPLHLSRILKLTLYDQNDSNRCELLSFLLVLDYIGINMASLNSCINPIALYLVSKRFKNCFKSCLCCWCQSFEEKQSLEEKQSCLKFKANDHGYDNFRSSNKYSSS
The experiment is described as follows: ETB receptor binding assay: [125I]ET-3 binding to membranes. As to conditions: test compound 1 µM; displacement of 0.1 nM [125I]ET-3; Porcine cerebellum membranes; 4 hours at 25 °C. As for the experimental part: Preparation of membranes from Porcine cerebellum:
Porcine cerebellum was homogenized in 25 volumes (w/v) of 10 mM Hepes (pH 7.4) containing 0.25 M sucrose and protease inhibitors (3 mM EDTA, 0.1 mM PMSF, and 5 µg/ml Pepstatin A) by 3-10 sec polytron at 13,500 rpm with 10 sec intervals. The mixture was centrifuged at 1000xg for 10 min. The supernatant was collected and centrifuged at 30,000xg for 30 min. The precipitate was resuspended in Buffer A (20 mM Tris, 100 mM NaCl, 10 mM MgCl2, pH 7.4) containing the aforementioned protease inhibitors and centrifuged again. The final pellet was resuspended in Buffer A containing protease inhibitors and stored at -80°C until used. Protein content was determined by the Bio-Rad dye-binding protein assay.
[^125I]ET-3 binding to membranes:
Binding assays were performed in 96-well microtiter plates pretreated with 0.1% BSA. Membranes prepared from cells were diluted ∼100 fold in Buffer B (20 mM Tris, 100 mM NaCl, 10 mM MgCl2, pH 7.4, with 0.2% BSA, 0.1 mM PMSF, 5 µg/mL Pepstatin A, 0.025% bacitracin, and 3 mM EDTA) to a final concentration of 0.2 mg/mL of protein. In competition studies, membranes (0.02 mg) were incubated with 0.1 nM of [^125I]ET-3 in Buffer B (final volume: 0.2 mL) in the presence of increasing concentrations of unlabeled ET-3 or a test compound for 4 hours at 25 °C. After incubation, unbound ligands were separated from bound ligands by a vacuum filtration method using glass-fiber filter strips in PHD cell harvesters (Cambridge Technology, Inc., MA), followed by washing the filter strips with saline (1 mL) for three times. Nonspecific binding was determined in the presence of 1 µM ET-1. The per cent inhibition at a concentration of 1 µM is shown. […]
`CCc1cccc(C)c1NC(=O)CN1C[C@H](c2ccc3c(c2)OCO3)[C@@H](C(=O)O)[C@@H]1c1ccc(OC)cc1` [Example 18, trans,trans-2-(4-methoxyphenyl)-4-(1,3-benzodioxol-5-yl)-1-((2-ethyl-6-methyl)phenylaminocarbonylmethyl)-pyrrolidine-3-carboxylic acid] registered an inhibition at 1 µM of 94.9%.

Turning to `COc1ccc([C@H]2[C@H](C(=O)O)[C@@H](c3ccc4c(c3)OCO4)CN2CC(=O)Nc2c(C)cccc2C(C)C)cc1` [Example 26, trans,trans-2-(4-methoxyphenyl)-4-(1,3-benzodioxol-5-yl)-1-((2-isopropyl-6-methyl)phenylaminocarbonylmethyl)-pyrrolidine-3-carboxylic acid], the inhibition at 1 µM amounted to 98%.

On to `COc1ccc([C@H]2[C@H](C(=O)O)[C@@H](c3ccc4c(c3)OCO4)CN2CC(=O)Nc2c(C(C)C)cccc2C(C)C)cc1` [Example 21, trans,trans-2-(4-methoxyphenyl)-4-(1,3-benzodioxol-5-yl)-1-((2,6-diisopropyl)phenylaminocarbonylmethyl)-pyrrolidine-3-carboxylic acid], for which at 1 µM the inhibition was 97.1%.

The molecule `COc1ccc([C@H]2[C@H](C(=O)O)[C@@H](c3ccc4c(c3)OCO4)CN2CC(=O)Nc2c(C)cccc2C)cc1` (racemic) [Example 11, trans,trans-2-(4-methoxyphenyl)-4-(1,3-benzodioxol-5-yl)-1-((2,6-dimethyl)phenylaminocarbonylmethyl)-pyrrolidine-3-carboxylic acid] displayed an inhibition at 1 µM of 96%.

The molecule `CCOc1ccc([C@H]2[C@H](C(=O)O)[C@@H](c3ccc4c(c3)OCO4)CN2CC(=O)Nc2c(CC)cccc2CC)cc1` (racemic) [Example 10, trans,trans-2-(4-ethoxyphenyl)-4-(1,3-benzodioxol-5-yl)-1-((2,6-diethyl)phenylaminocarbonylmethyl)-pyrrolidine-3-carboxylic acid] had an inhibition at 1 µM of 95.2%.

As for `CCOc1ccc([C@H]2[C@H](C(=O)O)[C@@H](c3ccc4c(c3)OCO4)CN2CC(=O)Nc2c(CC)cccc2CC)cc1F` (racemic) [Example 7, trans,trans-2-(3-Fluoro-4-ethoxyphenyl)-4-(1,3-benzodioxol-5-yl)-1-((2,6-diethyl)phenylaminocarbonylmethyl)-pyrrolidine-3-carboxylic acid], the inhibition at 1 µM worked out at 94.5%.

The molecule `COc1ccc([C@H]2[C@H](C(=O)O)[C@@H](c3ccc4c(c3)OCO4)CN2CC(=O)Nc2c(OC)cccc2OC)cc1` [Example 16, trans,trans-2-(4-methoxyphenyl)-4-(1,3-benzodioxol-5-yl)-1-((2,6-dimethoxy)phenylaminocarbonylmethyl)-pyrrolidine-3-carboxylic acid] registered an inhibition at 1 µM of 92.3%.

`CCc1cc(CC)c(NC(=O)CN2C[C@H](c3ccc4c(c3)OCO4)[C@@H](C(=O)O)[C@@H]2c2ccc(OC)cc2)c(CC)c1` [Example 19, trans,trans-2-(4-methoxyphenyl)-4-(1,3-benzodioxol-5-yl)-1-((2,4,6-triethyl)phenylaminocarbonylmethyl)-pyrrolidine-3-carboxylic acid] displayed an inhibition at 1 µM of 94.9%.

Regarding `CCCOc1ccc([C@H]2[C@H](C(=O)O)[C@@H](c3cc(OC)c4c(c3)OCO4)CN2CC(=O)Nc2c(CC)cccc2CC)cc1OC` [Example 13, trans,trans-2-(3-methoxy-4-propoxyphenyl)-4-(7-methoxy-1,3-benzodioxol-5-yl)-1-((2,6-diethyl)phenylaminocarbonylmethyl)-pyrrolidine-3-carboxylic acid], the inhibition at 1 µM was 91.3%.

In turn, `CCc1cc([N+](=O)[O-])cc(CC)c1NC(=O)CN1C[C@H](c2ccc3c(c2)OCO3)[C@@H](C(=O)O)[C@@H]1c1ccc(OC)cc1` [Example 25, trans,trans-2-(4-methoxyphenyl)-4-(1,3-benzodioxol-5-yl)-1-((4-nitro-2,6-diethyl)phenylaminocarbonylmethyl)-pyrrolidine-3-carboxylic acid] showed an inhibition at 1 µM of 95.7%.

Molecule `CCCOc1ccc([C@H]2[C@H](C(=O)O)[C@@H](c3ccc4c(c3)OCO4)CN2CC(=O)Nc2c(CC)cccc2CC)cc1OC` (racemic) [Example 9, trans,trans-2-(3-methoxy-4-propoxyphenyl)-4-(1,3-benzodioxol-5-yl)-1-((2,6-diethyl)phenylaminocarbonylmethyl)-pyrrolidine-3-carboxylic acid] yielded an inhibition at 1 µM of 94.8%.

`CCCOc1ccc([C@H]2[C@H](C(=O)O)[C@@H](c3ccc4c(c3)OCO4)CN2CC(=O)Nc2c(C)cc(C)cc2C)cc1` (racemic) [Example 3, trans,trans-2-(4-Propoxyphenyl)-4-(1,3-benzodioxol-5-yl)-1-((2,4,6-trimethyl)phenylaminocarbonylmethyl)-pyrrolidine-3-carboxylic acid]: the inhibition at 1 µM was determined as 82.1%.

As to `COc1ccc([C@H]2[C@H](C(=O)O)[C@@H](c3ccc4c(c3)OCO4)CN2CC(=O)Nc2c(C)cc(C)cc2C)cc1` (racemic) [Example 1, trans,trans-2-(4-Methoxyphenyl)-4-(1,3-benzodioxol-5-yl)-1-((2,4,6-trimethyl)phenylaminocarbonylmethyl)-pyrrolidine-3-carboxylic acid], the inhibition at 1 µM amounted to 96.4%.

As to `CCc1cccc(OC)c1NC(=O)CN1C[C@H](c2ccc3c(c2)OCO3)[C@@H](C(=O)O)[C@@H]1c1ccc(OC)cc1` [Example 27, trans,trans-2-(4-Methoxyphenyl)-4-(1,3-benzodioxol-5-yl)-1-(N-(2-ethyl-6-methoxy)phenylaminocarbonylmethyl)-pyrrolidine-3-carboxylic acid], testing at 1 µM gave an inhibition of 98.8%.

In turn, `CCCOc1ccc([C@H]2[C@H](C(=O)O)[C@@H](c3cc(OC)c4c(c3)OCO4)CN2CC(=O)Nc2c(CC)cccc2CC)cc1` (racemic) [Example 12, trans,trans-2-(4-propoxyphenyl)-4-(7-methoxy-1,3-benzodioxol-5-yl)-1-((2,6-diethyl)phenylaminocarbonylmethyl)-pyrrolidine-3-carboxylic acid] displayed an inhibition at 1 µM of 96.7%.

`CCCOc1ccc(C2C(C(=O)O)C(c3ccc4c(c3)OCO4)CN2CC(=O)Nc2c(CC)cccc2CC)cc1` [Example 20, [2R,3R,4S]2-(4-Propoxyphenyl)-4-(1,3-benzodioxol-5-yl)-1-(N-((2,6-diethyl)phenylaminocarbonylmethyl)-pyrrolidine-3-carboxylic acid] displayed an inhibition at 1 µM of 95.5%.

Turning to `CCc1cccc(CC)c1NC(=O)CN1C[C@H](c2ccc3c(c2)OCO3)[C@@H](C(=O)O)[C@@H]1c1ccc(OC)cc1` [Example 15, [2R,3R,4S]2-(4-Methoxyphenyl)-4-(1,3-benzodioxol-5-yl)-1-(N-(2,6-diethyl)phenylaminocarbonylmethyl)-pyrrolidine-3-carboxylic acid, hydrochloride salt], at 1 µM the inhibition was 93.4%.

In turn, `CCc1cc(C(=O)O)cc(CC)c1NC(=O)CN1C[C@H](c2ccc3c(c2)OCO3)[C@@H](C(=O)O)[C@@H]1c1ccc(OC)cc1` [Example 24, trans,trans-2-(4-methoxyphenyl)-4-(1,3-benzodioxol-5-yl)-1-((4-carboxy-2,6-diethyl)phenylaminocarbonylmethyl)-pyrrolidine-3-carboxylic acid] displayed an inhibition at 1 µM of 93.3%.

Turning to `CCc1cccc(CC)c1NC(=O)CN1C[C@H](c2ccc3c(c2)OCO3)[C@@H](C(=O)O)[C@@H]1c1ccc(OC)c(F)c1` (racemic) [Example 6, trans,trans-2-(3-Fluoro-4-methoxyphenyl)-4-(1,3-benzodioxol-5-yl)-1-((2,6-diethyl)phenylaminocarbonylmethyl)-pyrrolidine-3-carboxylic acid], testing at 1 µM gave an inhibition of 92.9%.

In the case of `COc1ccc([C@H]2[C@H](C(=O)O)[C@@H](c3ccc4c(c3)OCO4)CN2CC(=O)Nc2c(Br)cccc2Br)cc1` [Example 14, trans,trans-2-(4-methoxyphenyl)-4-(1,3-benzodioxol-5-yl)-1-((2,6-dibromo)phenylaminocarbonylmethyl)-pyrrolidine-3-carboxylic acid], the inhibition at 1 µM was 96.6%.

For the origin of these results see EP0888340B1, “4-(BENZO-1,3-DIOXOLYL)-PYRROLIDINE-3-CARBOXYLIC ACID DERIVATIVES AS ENDOTHELIN ANTAGONISTS” (Abbott Laboratories, priority 1996, dated 1997).
